The target in assay [1] is PI3Kδ (p110δ/p85α) Recombinant Human Protein (Homo sapiens (Human), UniProt O00329). As to the kind of experiment: PI3Kδ Scintillation Proximity Assay. The assay is classed as biochemical. Summed up:
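IC50 was fitted to percent solvent-control activity from SPA scintillation counts after WGA bead capture of 33P-labelled lipid product. Reaction: 120 min, room temperature, 3.4 nM p110δ/p85α, 20 μM PIP2, 2 μM ATP with tracer, MOPS pH 6.7 buffer containing MgCl2, DTT, CHAPS, 2% DMSO.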
On the technique in general: SPA uses beads or plates that emit light when radiolabelled molecules are held near them.

The target in assay [2] is PI3Kγ (p110γ) Recombinant Human Protein (Homo sapiens (Human), UniProt P48736). As to the kind of experiment: PI3K-γ Scintillation Proximity Assay. Format: biochemical. To be noted: read-out: PI3Kγ IC50. A digest of the protocol:
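Radiometric SPA readout: […] bound to WGA beads after overnight shaking, IC50 derived from % activity of DMSO control. Reaction used human p110γ, 2 μM ATP, 20 μM PIP2, pH 6.7 MOPS buffer with MgCl2, DTT, CHAPS, 2% DMSO, room temperature.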

In assay [3] the test system is Phosphorylated Ribosomal Protein S6 (RPS6). As to the kind of experiment: THP-1 RPS6 ELISA Assay. To be noted: THP-1 cells, read-out: PI3Kγ_THP1_RPS6_ELISA IC50. Format: cell-based, Human. The method, then: To measure the Phosphorylated Ribosomal Protein S6 (RPS6) in cell lysates, THP-1 cells (Human Acute Monocytic Leukemia) are purchased from ATCC (Manassas, Va.) and maintained in RPMI with 10% FBS (Gibco/Life Technologies, Carlsbad, Calif.). For the assay, THP-1 cells are serum starved overnight in RPMI, then plated in RPMI (2×10^5 cells/well in 90 μL) into 96-well flat-bottom tissue culture treated plates (Corning, Corning, N.Y.), in the presence or absence of a concentration range of test compounds. Covered plates are incubated for 2 hours at 37° C., 5% CO2 then treated with or without 10 nM MCP-1 (MYBioSource, San Diego, Calif.) for 15 minutes at 37° C., 5% CO2. Plates are centrifuged at 1600 RPM and supernatants are removed. Cells are lysed in Lysis Buffer (Cell Signaling, Danvers, Mass.) with Protease Inhibitor (Calbiochem/EMD, Germany), PMSF (Sigma, St Louis Mo.), HALTS (Thermo Fisher, Rockford, Ill.) for 30 min on wet ice. Cell lysates are frozen at −80° C. before testing. The lysates are tested in the Human/Mouse/Rat Phospho-RPS6 ELISA (R&D Systems, Inc. Minn, Minn.). The plate is measured using a microplate reader (SpectraMax M5 —Molecular Devices, LLC Sunnyvale, Calif.) set to 450 nm with a wavelength correction of 540. IC50 determination is performed by fitting the curve of inhibitor percent inhibition versus the log of the inhibitor concentration using the GraphPad Prism 5.0 software.
On the technique in general: In an ELISA, binding on a coated surface is turned into a signal by an enzyme label.

Structures can show the parent of a compound that is named as a salt. Where two headings read alike, the source gives them in different places. Where only a bound is given, the exact number is not on record here.

PI3Kγ (p110γ) Recombinant Human Protein, sequence (P48736 whole entry): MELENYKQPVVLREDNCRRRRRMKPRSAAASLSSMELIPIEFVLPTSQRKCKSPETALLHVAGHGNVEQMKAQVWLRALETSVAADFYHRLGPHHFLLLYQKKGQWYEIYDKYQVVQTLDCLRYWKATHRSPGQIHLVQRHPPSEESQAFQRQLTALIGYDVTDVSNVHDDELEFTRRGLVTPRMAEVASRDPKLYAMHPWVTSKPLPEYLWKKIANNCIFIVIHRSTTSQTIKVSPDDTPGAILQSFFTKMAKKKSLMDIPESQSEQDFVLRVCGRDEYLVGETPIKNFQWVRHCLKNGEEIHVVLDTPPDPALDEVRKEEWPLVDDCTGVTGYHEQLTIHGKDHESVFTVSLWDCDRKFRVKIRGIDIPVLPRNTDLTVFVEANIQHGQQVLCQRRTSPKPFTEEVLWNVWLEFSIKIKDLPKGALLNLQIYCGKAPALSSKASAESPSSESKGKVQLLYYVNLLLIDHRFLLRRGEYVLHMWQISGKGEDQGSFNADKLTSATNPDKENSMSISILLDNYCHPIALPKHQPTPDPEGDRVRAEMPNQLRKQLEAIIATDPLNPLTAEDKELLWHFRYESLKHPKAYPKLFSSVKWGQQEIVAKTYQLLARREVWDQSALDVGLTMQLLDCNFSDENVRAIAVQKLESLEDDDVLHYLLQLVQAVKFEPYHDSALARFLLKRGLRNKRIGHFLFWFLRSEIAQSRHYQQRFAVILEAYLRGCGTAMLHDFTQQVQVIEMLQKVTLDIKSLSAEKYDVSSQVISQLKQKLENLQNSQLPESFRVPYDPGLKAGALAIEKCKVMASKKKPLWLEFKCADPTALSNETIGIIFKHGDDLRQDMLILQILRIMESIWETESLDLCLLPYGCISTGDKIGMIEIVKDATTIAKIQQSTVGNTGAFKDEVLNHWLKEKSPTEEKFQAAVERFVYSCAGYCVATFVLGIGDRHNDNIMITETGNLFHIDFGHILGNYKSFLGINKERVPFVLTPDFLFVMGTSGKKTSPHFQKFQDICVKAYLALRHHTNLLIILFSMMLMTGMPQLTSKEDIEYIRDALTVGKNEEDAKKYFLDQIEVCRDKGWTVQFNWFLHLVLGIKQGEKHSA
PI3Kδ (p110δ/p85α) Recombinant Human Protein, sequence (O00329 whole entry): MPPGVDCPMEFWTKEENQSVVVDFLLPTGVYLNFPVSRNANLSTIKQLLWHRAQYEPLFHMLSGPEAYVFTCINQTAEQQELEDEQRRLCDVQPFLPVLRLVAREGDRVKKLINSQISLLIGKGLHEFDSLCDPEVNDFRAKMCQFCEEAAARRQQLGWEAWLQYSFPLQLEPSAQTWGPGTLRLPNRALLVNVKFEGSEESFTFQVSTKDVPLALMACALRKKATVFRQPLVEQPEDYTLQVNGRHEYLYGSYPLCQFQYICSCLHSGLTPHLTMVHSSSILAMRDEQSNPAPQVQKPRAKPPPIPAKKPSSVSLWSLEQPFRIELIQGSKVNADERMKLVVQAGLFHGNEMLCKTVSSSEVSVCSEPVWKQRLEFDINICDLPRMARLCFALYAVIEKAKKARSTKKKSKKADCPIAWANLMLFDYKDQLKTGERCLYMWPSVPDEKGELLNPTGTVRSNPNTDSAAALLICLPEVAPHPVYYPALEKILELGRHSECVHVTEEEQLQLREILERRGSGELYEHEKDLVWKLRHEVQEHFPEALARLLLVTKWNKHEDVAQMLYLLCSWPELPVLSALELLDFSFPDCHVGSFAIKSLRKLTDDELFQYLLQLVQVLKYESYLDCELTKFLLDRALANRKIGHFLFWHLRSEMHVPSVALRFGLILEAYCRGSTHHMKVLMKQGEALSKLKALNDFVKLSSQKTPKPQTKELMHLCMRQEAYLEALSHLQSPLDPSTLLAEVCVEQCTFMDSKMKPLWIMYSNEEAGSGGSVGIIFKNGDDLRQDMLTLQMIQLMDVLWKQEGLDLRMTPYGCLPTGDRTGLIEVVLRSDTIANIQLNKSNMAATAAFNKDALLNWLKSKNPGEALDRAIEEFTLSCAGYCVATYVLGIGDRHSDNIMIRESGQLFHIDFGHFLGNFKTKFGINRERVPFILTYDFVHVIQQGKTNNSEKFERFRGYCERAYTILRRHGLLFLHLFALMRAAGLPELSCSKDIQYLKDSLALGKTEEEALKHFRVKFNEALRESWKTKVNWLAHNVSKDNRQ
PI3Kδ (p110δ/p85α) Recombinant Human Protein, sequence (P27986 whole entry partner): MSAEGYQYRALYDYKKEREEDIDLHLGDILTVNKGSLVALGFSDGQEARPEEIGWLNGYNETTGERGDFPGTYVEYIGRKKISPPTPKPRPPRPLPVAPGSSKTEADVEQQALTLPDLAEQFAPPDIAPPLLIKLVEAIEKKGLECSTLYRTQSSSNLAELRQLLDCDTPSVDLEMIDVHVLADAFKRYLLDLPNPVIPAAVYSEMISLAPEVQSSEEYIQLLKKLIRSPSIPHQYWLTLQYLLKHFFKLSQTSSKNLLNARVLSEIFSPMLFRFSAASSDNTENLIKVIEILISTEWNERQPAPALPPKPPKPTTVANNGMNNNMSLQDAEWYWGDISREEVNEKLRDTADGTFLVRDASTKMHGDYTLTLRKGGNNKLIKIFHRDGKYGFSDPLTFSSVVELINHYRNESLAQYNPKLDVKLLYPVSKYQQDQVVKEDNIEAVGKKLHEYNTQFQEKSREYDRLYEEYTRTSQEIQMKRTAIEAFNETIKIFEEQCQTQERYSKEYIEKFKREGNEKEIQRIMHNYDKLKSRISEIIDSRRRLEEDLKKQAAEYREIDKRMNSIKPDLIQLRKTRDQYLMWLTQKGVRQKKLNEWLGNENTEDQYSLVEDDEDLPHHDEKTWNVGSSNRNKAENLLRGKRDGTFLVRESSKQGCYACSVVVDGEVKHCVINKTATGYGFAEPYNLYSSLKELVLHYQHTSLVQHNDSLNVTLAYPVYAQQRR

With `Cc1ccc(S(=O)(=O)N2CC3NCC2C3O)cc1-c1cnc2c(N)nc(C(F)(F)F)nn12` (stereo not drawn) [Example 355, 2-((3-(4-amino-2-(trifluoromethyl)imidazo[2,1-f][1,2,4]triazin-7-yl)-4-methylphenyl)sulfonyl)-2,5-diazabicyclo[2.2.1]heptan-7-ol], the figures for the IC50 in assay [1], in assay [2] and in assay [3] (Homo sapiens) were 100 to 500 nM, less than 100 nM and 100 to 500 nM, respectively.
Regarding `Cc1ccc(S(=O)(=O)CC(C)O)cc1-c1cnc2c(N)nc(C(F)(F)F)cn12` (stereo not drawn) [Example 496, 1-((3-(8-Amino-6-(trifluoromethyl)imidazo[1,2-a]pyrazin-3-yl)-4-methylphenyl)sulfonyl)propan-2-ol trifluoroacetate], the IC50 was 500 to 2000 nM in assay [1], less than 100 nM in assay [2] and 500 to 1000 nM in assay [3] (Homo sapiens).
`Cc1ccc(S(=O)(=O)N2CC(O)(C3CC3)C2)cc1-c1cnc2c(N)nc(C(F)(F)F)nn12` [Example 342, 1-((3-(4-amino-2-(trifluoromethyl)imidazo[2,1-1,2,4]triazin-7-yl)-4-methylphenyl)sulfonyl)-3-cyclopropylazetidin-3-ol TFA]: the figures for the IC50 in assay [1], in assay [2] and in assay [3] were 100 to 500 nM, less than 100 nM and 100 to 500 nM, respectively.
As to `Nc1nc(C(F)(F)F)nn2c(-c3ccc(F)c(S(=O)(=O)NC45CCC(CO)(C4)C5)c3)cnc12` [Example 418, 5-(4-Amino-2-(trifluoromethyl)imidazo[1,2-f][1,2,4]triazin-7-yl)-2-fluoro-N-(4-(hydroxymethyl)bicyclo[2.1.1]hexan-1-yl)benzenesulfonamide], the IC50 is 100 to 500 nM in assay [1], less than 100 nM in assay [2] and more than 1000 nM in assay [3].
Consider `Cc1ccc(S(=O)(=O)N2CC3(CC(O)C3)C2)cc1-c1cnc2c(N)ncnn12` [Example 145, 2-((3-(4-aminoimidazo[2,1-f][1,2,4]triazin-7-yl)-4-methylphenyl)sulfonyl)-2-azaspiro[3.3]heptan-6-ol, TFA], for which the IC50 is 100 to 500 nM in assay [1], less than 100 nM in assay [2] and 100 to 500 nM in assay [3].
Regarding `Cc1ccc(S(=O)(=O)N2CCCC23CCOC3)cc1-c1cnc2c(N)ncnn12` (stereo not drawn) [Example 208, 7-(5-((7-Oxa-1-azaspiro[4.4]nonan-1-yl)sulfonyl)-2-methylphenyl)imidazo[2,1-f][1,2,4]triazin-4-amine], the figures for the IC50 in assay [1], in assay [2] and in assay [3] (Homo sapiens) were 500 to 2000 nM, less than 100 nM and 500 to 1000 nM, respectively.
For `CNC(=O)c1ccc(F)c(-c2cn3c(-c4cc(S(=O)(=O)N[C@H]5CC[C@H](O)CC5)ccc4C)cnc3c(N)n2)c1` [Example 31, 3-[8-Amino-3-(5-{[(trans-4-hydroxycyclohexyl)amino]sulfonyl}-2-methylphenyl)imidazo[1,2-a]pyrazin-6-yl]-4-fluoro-N-methylbenzamide] the same measures were less than 100 nM, less than 100 nM and more than 1000 nM.
Consider `Cc1ccc(S(=O)(=O)N(C)CCC#N)cc1-c1cnc2c(N)nc(C(F)(F)F)nn12` [Example 344, 3-(4-amino-2-(trifluoromethyl)imidazo[2,1-f][1,2,4]triazin-7-yl)-N-(2-cyanoethyl)-N,4-dimethylbenzenesulfonamide], for which the IC50 in assay [1] was less than 100 nM; in assay [2] it was less than 100 nM; in assay [3] (Homo sapiens) it was 100 to 500 nM.
As to `Cc1ccc(S(=O)(=O)NCC2CC(F)(F)C2)cc1-c1cnc2c(N)nc(C(=O)NC3CCC3)cn12` [Example 446, 8-amino-N-cyclobutyl-3-(5-(N-((3,3-difluorocyclobutyl)methyl)sulfamoyl)-2-methylphenyl)imidazo[1,2-a]pyrazine-6-carboxamide trifluoroacetate salt], the IC50 in assay [1] is 100 to 500 nM; in assay [2] it was less than 100 nM; in assay [3] (Homo sapiens), 100 to 500 nM.

Usually IC50 stands for the point on the concentration scale where inhibition reaches its midpoint.

The values above are taken from patent publication US10479795B2 (Incyte Corporation, priority 2016, dated 2019).
